We go through 14 compounds from article PMC10492782, “Exploiting the aggregation propensity of beta-lactamases to design inhibitors that induce enzyme misfolding” (Nature Communications, 2023).

The test system of assay [1] is E. coli strain UZ_TEM104. As to conditions: broth microdilution, MHB, overnight 37 °C, peptide alone. An excerpt: Pept-Ins consist of a tandem repeat of the APR, each instance flanked by charged amino acids for solubility and separated by a short peptide linker[20],[21],[24] (Fig. 3A). Previous work has shown that good bacterial uptake can be achieved using one positively charged arginine residue on the N-terminal side of each APR in the tandem and two arginine residues on the C-terminal side[20],[21]. […] As before, we employed a single Pro residue as a linker between the APRs and focused on an APR length of seven, extending shorter APRs to this length by incorporating flanking amino acids unless they were obvious aggregation breakers (Arg, Lys, Asp, Glu or Pro, see Table 1).
Determination of MIC values was performed using the broth microdilution method according to the EUCAST guideline, which was performed in 96-well polystyrene flat-bottom microtiter plates (BD Biosciences). Briefly, a single colony was inoculated into 5 mL Difco™ Mueller–Hinton Broth (BD Biosciences Ref 275730) and grown to the end-exponential growth phase in a shaking incubator at 37 °C. Cultures were subsequently diluted to a MacFarland (0.5 optical density) to reach 10^6 CFU/mL in fresh MHB medium. 50 µl of different concentrations of peptides ranging from 128 to 2 µg/mL were serially diluted to the sterile 96-well plate in MHB. 50 µL of the diluted bacteria in MHB were next pipetted into 96-well plates to reach the final volume of 100 µL. The bacteria grown with the maximum concentration of carrier and medium were considered positive and negative controls, respectively. The plates were statically incubated overnight at 37 °C to allow bacterial growth. OD was measured at 590 nm using a multipurpose ultraviolet–visible plate reader, and the absorbance of the bacterial growth was measured using an absorbance reader.
Background: Broth dilution looks for growth in wells or tubes with falling amounts of substance.

For assay [2], the system named is E. coli strain UZ_TEM104. The assay can be described thus: microbe, parasite or virus in culture. Format: cell-based, Escherichia coli.
Assay [3] addresses TEM-1 (Escherichia coli, UniProt P62593). The class given is biochemical, E. coli. The arrangement: His-tag (N); TEV cleavage site (N); made in house; host or cells: E. coli BL21 (DE3). The settings on record: static light scattering during temperature ramp, inhibitor titration.
Excerpt: Then, we performed a thermal denaturation whilst simultaneously monitoring the intrinsic fluorescence as a measure of the folding status of the molecule (Fig. 1D and Supplementary Fig. 2D) and the static light scattering as a measure of aggregation (Fig. 1E and Supplementary Fig. 2E).
D Heat denaturation of TEM-1 monitored by intrinsic fluorescence plotted as the BaryCentric Mean (BCM) of the fluorescence emission spectrum in the presence (red) and absence (blue) of tazobactam. […] E Temperature-dependent evolution of the Right-Angle Light Scattering (RALS) intensity measured simultaneously with the data in D to monitor protein aggregation. […] F Same data as in E, but showing a dose-titration of the beta-lactamase inhibitor tazobactam.
Assay [4] deals with E. coli UZ_TEM104. The assay can be described thus: FACS with pFTAA (aggregation) and propidium iodide (cell death). The settings on record: 4 h; penicillin G 400 μg/mL and/or TEM3.2 50 μg/mL. Format: cell-based, Escherichia coli.
Method: Fig. 6 Uptake and inclusion body formation upon peptide treatment. Fluorescence-activated cell-sorting (FACS) (A) of E. coli strain UZ_TEM104 mixed 50–50% with the same strain after heat-inactivation. The cells were stained with pFTAA to monitor aggregation and propidium iodide (PI) to monitor cell permeabilization associated with cell death. 10^6 cells were analyzed for the plot. […] B Similar FACS analysis as in A, but with a sample of live bacteria only. […] Note: the horizontal and vertical lines correspond to the gatings used to obtain the quantifications shown in the corners of each image.
Treated bacteria were washed with PBS buffer two times. One microliter of PI (Invitrogen) was added to the bacteria and incubated for 5 min. The bacteria were counted by FACS to reach 40000 events. To correlate the activity of the peptides with cell death, the fluorescence intensity was measured in two channels using the Gallios^TM Flow Cytometer (Beckman Coulter, USA), PI: excitation 536 nm and emission 617 nm, FITC: excitation 490 nm and emission 525 nm. Heated bacteria at 90 °C for 10 min were used as PI-positive control.
The bacterial cultures were washed with PBS, and the number of bacteria was adjusted to 10^8–10^9 cells/mL. […] Then, cells were treated with LCO dyes (pFTAA; Amytacker^TM680 or Amytacker^TM545: final concentration of 0.5 µM; Ebba Biotech, Sweden) for at least 90 min. The absorption, emission, and excitation spectra for each dye were measured based on the standard Ebbabiotec advice (ebbabiotech.com).
Assay [5] deals with E. coli TEM104. On the procedure: (§1) To quantify the synergy between these four peptides and penicillin G, we performed a so-called checkerboard assay, which allows us to compare the activity of two test compounds co-incubated (here peptide and a beta-lactam antibiotic), to their individual activities in isolation. […] We evaluated the synergy of the peptides with penicillin G in clinical E. coli isolates carrying the TEM (Fig. 3D) or SHV enzymes (Fig. 3E). […] The list of strains included some that harbored only TEM or SHV, but others contained additional Ambler Class A (CTX-M or OXA) or Class B (VIM and NDM) beta-lactamases.
(§2) For the analysis of synergy between the peptides and other antibiotics, a checkerboard assay was performed. Based on the MICs of the selected peptides, a checkerboard assay was designed to define their FICIs (Fractional Inhibitory Concentration Index) in combinations against different clinical isolates[53],[54]. Briefly, a total volume of 100 μL of Mueller–Hinton broth was distributed into each well of the 96-well plates. The first compound (peptide) of the combination was serially diluted vertically (128, 64, 32, 16, 8, 4, 2, 0 μg/mL) while the other drug (Beta-lactam or Kanamycin) was diluted horizontally in a 96-well plate (from 3200 to 3 μg/ mL). The total volume of each microtiter well was inoculated with 100 μL of MHB containing 1 × 10^6 CFU/mL bacteria. The plates were incubated at 37 °C for 24 h under aerobic conditions without shaking. Calculation of the FICI is used to analyze the results of the checkerboard assay by estimating the degree of synergistic effect. FICI is calculated as the sum of the individual fractional inhibitory concentrations (FICs) for each drug (where MIC A and MIC B denote the MIC of each drug alone, and MIC AA+B and MIC BA+B denote the concentrations of A and B in the drug combination). FICI = (MIC AA+B/MIC A) + (MIC BA+B/MIC B). With FICI ≤ 0.5, the combination of antibiotics is considered as a synergistic effect, 0.5 < FICI ≤ 1 indicates additivity, FICI > 1 indicates indifference.

Assay [6] deals with E. coli NDM-5b. The settings on record: for synergy with penicillin (in words): checkerboard, strain containing NDM5b; for FICi values: E. coli NDM-5b.
Excerpt: (§3) As we wondered about the generality of our peptide design approach, we set out to design a peptide to inactivate a structurally unrelated beta-lactamase. To this end, we turned to the Ambler class B beta-lactamase NDM-1 that confers resistance to many beta-lactam antibiotics, including carbapenems, and strains carrying this enzyme were soon dubbed ‘superbugs’ that are only partially sensitive to colistin and tigecycline. This enzyme was first isolated from a patient in 2008[41]. By 2010 it could be detected in clinical isolates throughout the UK and India[42], and by 2015, in over 70 countries worldwide.
as §2

In assay [7] the test system is E. coli NDM-5a. As to conditions: for FICi values: E. coli NDM-5a; for synergy with penicillin (in words): checkerboard, strain containing NDM5a.
Excerpt: as §3, §2

For assay [8], the system named is E. coli SHV11. The assay can be described thus: Checkerboard assay (FICI). The class given is cell-based, Escherichia coli. As to conditions: strain containing SHV-11, FICI below 0.5 = synergy. On the procedure:
as §1
For the analysis of synergy between the peptides and other antibiotics, a checkerboard assay was performed. Based on the MICs of the selected peptides, a checkerboard assay was designed to define their FICIs (Fractional Inhibitory Concentration Index) in combinations against different clinical isolates[53],[54]. Briefly, a total volume of 100 μL of Mueller–Hinton broth was distributed into each well of the 96-well plates. […] FICI is calculated as the sum of the individual fractional inhibitory concentrations (FICs) for each drug (where MIC A and MIC B denote the MIC of each drug alone, and MIC AA+B and MIC BA+B denote the concentrations of A and B in the drug combination). […]

Where [9] appears, read: E. coli UZ_TEM104, concentration of additive 50 (mg/mL [sic]).
Where [10] appears, read: in the presence of additive (peptide or tazobactam) at fixed 50 μg/mL.

≈ marks a conversion by molar mass, not a printed value. Read-outs that look alike come from different tables or passages of the source. Residues, ends and D or L forms follow the SMILES beside them.

TEM-1, sequence (P62593 24-286 limits assumed): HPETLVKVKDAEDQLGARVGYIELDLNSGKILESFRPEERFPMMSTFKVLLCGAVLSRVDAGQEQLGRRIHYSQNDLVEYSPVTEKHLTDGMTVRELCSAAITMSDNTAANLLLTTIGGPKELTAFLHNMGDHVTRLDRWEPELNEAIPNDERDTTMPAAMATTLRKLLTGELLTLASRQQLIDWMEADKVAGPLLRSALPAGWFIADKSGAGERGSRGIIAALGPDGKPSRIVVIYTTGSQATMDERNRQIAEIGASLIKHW

Turning to `CC(=O)N[C@@H](CCCNC(=N)N)C(=O)N[C@@H](Cc1ccccc1)C(=O)N[C@@H](Cc1ccccc1)C(=O)N[C@@H](C)C(=O)N[C@@H](C)C(=O)N[C@@H](Cc1ccccc1)C(=O)N[C@@H](CS)C(=O)N[C@@H](CC(C)C)C(=O)N[C@@H](CCCNC(=N)N)C(=O)N[C@@H](CCCNC(=N)N)C(=O)N1CCC[C@H]1C(=O)N[C@@H](CCCNC(=N)N)C(=O)N[C@@H](Cc1ccccc1)C(=O)N[C@@H](Cc1ccccc1)C(=O)N[C@@H](C)C(=O)N[C@@H](C)C(=O)N[C@@H](Cc1ccccc1)C(=O)N[C@@H](CS)C(=O)N[C@@H](CC(C)C)C(=O)N[C@@H](CCCNC(=N)N)C(=O)N[C@@H](CCCNC(=N)N)C(N)=O` [TEM1.0] (Ac-RFFAAFCLRRPRFFAAFCLRR-NH2), the MIC peptide in assay [1] is above 0.1 mg/mL. Besides, the MIC penicillin in assay [2] (setting [9]) is 1600 mg/mL (≈ 594 mM); in assay [2] (setting [10]), 1.6 mg/mL.

Turning to `NC(=O)[C@@H]1CC[C@@H]2CN1C(=O)N2OS(=O)(=O)O` [avibactam], in assay [3], the “effect on aggregation of TEM-1, dose-response (in words)” value (shortened to “effect on aggregation”) is given as “reduce the aggregation of the enzyme in a dose-responsive manner”.

Regarding `O=C(O)[C@H]1/C(=C/CO)O[C@@H]2CC(=O)N21` [clavulanate], in assay [3], the “effect on aggregation” value is reported as “reduce the aggregation of the enzyme in a dose-responsive manner”.

Consider `CC1(C)S[C@@H]2[C@H](NC(=O)Cc3ccccc3)C(=O)N2[C@H]1C(=O)O` [penicillin G, Benzylpenicillin sodium], for which the “shift in pFTAA and PI channels (in words)” value in assay [4] was “no major change in either channel”. Also, in assay [2] (Escherichia coli, read-out: MIC penicillin), the MIC came out at 1.6 mg/mL.

`O=C(O)C[C@@H]1CC[C@H](NC(=O)Cc2cccs2)B(O)O1` [vaborbactam]: the “effect on aggregation” value in assay [3] was “reduce the aggregation of the enzyme in a dose-responsive manner”.

For the compound Ac-RAGWFIARRPRAGWFIARR-NH2 [TEM5.0], in assay [1], the MIC peptide is 0.1 mg/mL. In addition, the MIC penicillin in assay [2] (setting [9]) was 1600 mg/mL; in assay [2] (setting [10]), 1.6 mg/mL.

In the case of Ac-RGIIAALGRRPRGIIAALGRR-NH2 [TEM6.0], the MIC peptide in assay [1] was above 0.1 mg/mL. Besides, the MIC penicillin in assay [2] (setting [9]) is 1600 mg/mL; in assay [2] (setting [10]), 1.6 mg/mL.

Turning to Ac-RIVVIYTTRRPRIVVIYTTRR-NH2 [TEM7.0], the MIC peptide in assay [1] was above 0.1 mg/mL. For the same compound, the MIC penicillin in assay [2] (setting [9]) came to 1600 mg/mL; in assay [2] (setting [10]) it was 1.6 mg/mL.

On to Ac-RLAAALMLRRPRAQILNWIRR-NH2 [NDM1-2], for which the FICi values in assay [5] (TEM104, Replicate1) stood at 0.75; in assay [5] (TEM104, Replicate2) it was 1; in assay [5] (TEM104, Replicate3) it was 0.5; in assay [5] (TEM104, Replicate4), 1; in assay [5] (TEM104, Replicate5), 0.72; in assay [7] (Replicate1), 0.375. In addition, the FICi values in assay [7] (Replicate2) came to 0.36; in assay [7] (Replicate3) it was 0.25; in assay [7] (Replicate4), 0.159; in assay [7] (Replicate5), 0.25. In addition, the “synergy with penicillin (in words)” value in assay [6] and in assay [7] was “show synergy” each time.

Compound Ac-RLLLTTIGRRPRLLLTTIGRR-NH2 [TEM2.0] returned an MIC peptide in assay [1] above 0.1 mg/mL. Besides, the values for the MIC penicillin in assay [2] (setting [9]) and in assay [2] (setting [10]) were 800 mg/mL and 0.8 mg/mL, respectively.

Compound Ac-RLLTLASRRPRLLTLASRR-NH2 [TEM4.0] gave an MIC peptide in assay [1] of 0.1 mg/mL. In addition, the MIC penicillin in assay [2] (setting [9]) was determined as 1600 mg/mL; in assay [2] (setting [10]) it was 1.6 mg/mL.

In turn, Ac-RLTAFLHNRRPRLTAFLHNRR-NH2 [TEM3.0] yielded an MIC peptide in assay [1] above 0.1 mg/mL.

Ac-RSVIIWSLGRRPRSVIIWSLGRR-NH2 [BGAL] displayed an MIC peptide in assay [1] above 0.1 mg/mL. The FICi values stood at 1 in assay [5] (TEM104, Replicate1); 1 in assay [5] (TEM104, Replicate2); 1 in assay [5] (TEM104, Replicate3); 1 in assay [5] (TEM104, Replicate4); 1.5 in assay [5] (TEM104, Replicate5); 2 in assay [6] (Replicate1). Further, the FICi values in assay [6] (Replicate2) turned out to be 1; in assay [6] (Replicate3), 2; in assay [6] (Replicate4) it was 2; in assay [6] (Replicate5), 1.5; in assay [7] (Replicate1) it was 2; in assay [7] (Replicate2), 2. Also, the figures for the FICi values in assay [7] (Replicate3), in assay [7] (Replicate4) and in assay [7] (Replicate5) were 2, 1.5 and 2, respectively. Also, in assay [8], the “synergy with penicillin G (in words)” value was “no synergy with penicillin G”. For the same compound, the “synergy with penicillin (in words)” value in assay [6] and in assay [7] was “neither showed synergy on any of the strains used” each time.

Ac-RTAQILNWRRPRTAQILNWRR-NH2 [NDM1-1]: the FICi values in assay [5] (TEM104, Replicate1) amounted to 0.5; in assay [5] (TEM104, Replicate2), 0.78; in assay [5] (TEM104, Replicate3), 0.72; in assay [5] (TEM104, Replicate5), 0.75; in assay [7] (Replicate1), 0.37; in assay [7] (Replicate2), 0.38. Also, the FICi values in assay [7] (Replicate3) amounted to 0.21; in assay [7] (Replicate4), 0.195; in assay [7] (Replicate5), 0.25. In addition, the “synergy with penicillin (in words)” value in assay [6] and in assay [7] was “show synergy” throughout.
